# “Also recorded” adds a separate entry of the source.
# How the values were obtained:
# BPE cells = experiment: Apoptosis (Annexin V/PI flow cytometry, caspase 3 and PARP cleavage immunoblot); format: cell-based, human; details: clinically relevant / low dose, 24 hours
# Description: (§1) BPLER were used as control. […] The percentage of double-positive cells is indicated.
# (§2) To further define factors underlying such properties of BPLER cells, we first determined the molecular mechanism by which proteasome inhibition affects the growth of these cells.
# (§3) Immunoblot was performed as described^41. Primary antibodies were as follows: cleaved Caspase 3 (Cell Signaling, rabbit polyclonal, 1:1000), PARP1 (Santa Cruz, rabbit polyclonal, 1:500), MCL1 (Cell Signaling, Rabbit polyclonal, 1:1000), Bim (Santa Cruz, rabbit polyclonal, 1:500), Bik (Cell Signaling, rabbit polyclonal, 1:1000), Puma (Cell Signaling, rabbit polyclonal, 1:1000), Noxa (Calbiochem, mouse monoclonal, 1:500), Bid (Santa Cruz, rabbit polyclonal, 1:500), Bad (Santa Cruz, rabbit polyclonal, 1:500). Antibodies were diluted in 5% milk in TBS-T and incubated O.N. at 4° C. Secondary mouse and rabbit HRP-conjugated antibodies were from Amersham. Protein signal was detected using the ECL Plus kit (Amersham). For flow cytometry, cells were stained as previously described^33, using the following fluorescent-conjugated antibodies: CD44 (BD Biosciences), CD24 (BD Biosciences), CD326 (ESA, Biolegend), Annexin V (Invitrogen). For immunofluorescence microscopy, cells were fixed in 2% PFA for 10 min, permeabilized with 1% Triton X in PBS for 5 min, and incubated with primary antibodies in 0.5% Triton X, 1% FBS in PBS for 30 min at RT. Antibodies were: CK18 (Santa Cruz, mouse monoclonal, 1:100) and CK14 (Millipore, mouse monoclonal, 1:100). After washing the cells were stained sequentially with AlexaFluor647-conjugated secondary antibody (Invitrogen, 1:200) and DAPI (Sigma, 1:5000). For immunohistochemistry, BPLER tumor sections were prepared from paraffin-embedded tissues, deparaffinized and treated with 10% citrate buffer for 15 min. Staining was performed using a BIOGENEX IHC DAB kit (Biogenex) following the manufacturer's protocol. Primary antibodies were: CK14 (Millipore, mouse monoclonal, 1:100), CK5 (Millipore, mouse monoclonal, 1:100), HH3 (Cell Signaling, rabbit polyclonal, 1:100), ER (Abcam, mouse monoclonal, 1:100), Vimentin (Invitrogen, mouse monoclonal 1:100), Ki67 (Millipore, mouse monoclonal, 1:100).
# HMLER cells = experiment: as above; format: cell-based, human; details: clinically relevant / low dose, 24 hours
# Description: as §1, §2, §3
# BPLER cells = experiment: as above; format: cell-based, human; details: clinically relevant / low dose, 24 hours
# Description: as §1, §2, §3
# [1] = tested on: mesenchymal MDA-MB-231 and MDA-MB-436 cells; details: MB-231, MB-436
# [2] = tested on: mesenchymal MDA-MB-231 and MDA-MB-436 cells; experiment: cells; details: Homo sapiens, 24 h, read-out: decrease of cell viability
# BPLER tumors = experiment: BPLER tumor xenografts in Nu/J mice (tumor volume, tumor weight); format: in vivo, mouse
# Description: We first assessed the effect of bortezomib on pre-established subcutaneous BPLER xenografts in nude mice. […] To reduce experimental variability, we selected mice bearing tumors of homogenous size (˜[…] in diameter after 3 weeks from injection), which were randomized into two groups. Each group received 6 doses of either vehicle (DMSO) or bortezomib at 0.5 mg/kg i.p. q3d over a 16-day period, respectively. At the end of the treatment period, mice were sacrificed and tumor weight was assessed.
# Bortezomib is already in the clinic for treatment of multiple myeloma and other lymphomas. To start investigating potential clinical efficacy in TNBC, BPLER tumor-bearing mice were given 1 dose (0.8 mg/kg) of bortezomib intratumorally (i.t.), intraperitoneally (i.p) or intravenously (i.v.) and proteasome activity in the tumor was assessed after 18 hours (FIG. 6A). […] To assess therapeutic efficacy, we administered bortezomib every 3 days (0.8 mg/kg i.t.) or weekly (1.6 mg/kg i.v.) after BPLER tumors, implanted in the flank of Nu/J mice, became palpable. BPLER tumor outgrowth was assessed by tumor volume during the treatment period and by tumor weight at the time of sacrifice.
# All animal procedures were performed with IACUC approval. Exponentially growing cells were trypsinized with TRYPLE EXPRESS (Invitrogen), resuspended in a 1:1 WIT-Matrigel solution at the indicated numbers, and injected subcutaneously in the flank of 4-week old female Nu/J mice (Stock #002019, Jackson Laboratories). […] Mice were sacrificed 16 days after beginning treatment and tumor weight was assessed.
# Noxa, PARP1 = experiment: Immunoblot of Noxa induction and PARP cleavage in breast cell lines; format: cell-based, human; details: for Noxa protein induction: 12.5 nM, 24 hours
# Description: as §3, with “min.” for “min. Staining was performed using a BIOGENEX IHC DAB kit (Biogenex) following the manufacturer's protocol. Primary antibodies were: CK14 (Millipore, mouse monoclonal, 1:100), CK5 (Millipore, mouse monoclonal, 1:100), HH3 (Cell Signaling, rabbit polyclonal, 1:100), ER (Abcam, mouse monoclonal, 1:100), Vimentin (Invitrogen, mouse monoclonal 1:100), Ki67 (Millipore, mouse monoclonal, 1:100).”
compound,measurement,setting,value
CC(C)C[C@H](NC(=O)[C@H](Cc1ccccc1)NC(=O)c1cnccn1)B(O)O [bortezomib],apoptosis (cleavage of caspase 3 and PARP),BPE cells,resistant to bortezomib-induced apoptosis
same,apoptosis (cleavage of caspase 3 and PARP),HMLER cells,only partially; also recorded: minimal signs of apoptosis
same,apoptosis (cleavage of caspase 3 and PARP),BPLER cells,marked cleavage; also recorded: died of apoptosis
same,sensitivity of mesenchymal breast cancer cell lines,[1],resistant
same,cytotoxicity at 0.0125 µM,[2],20 to 25%
same,reduction of median tumor weight,"BPLER tumors; 0.5 mg/kg i.p. q3d, 6 doses, after 16 days",54%
same,"tumors smaller than in control mice (tumor volume, average)",BPLER tumors; 0.8 mg/kg i.t. every 3 days,85%
same,tumors weighed less than in control mice (average),BPLER tumors; 0.8 mg/kg i.t. every 3 days,91%
same,"tumors smaller than in control mice (tumor volume, average)",BPLER tumors; 1.6 mg/kg i.v. weekly,59%
same,tumors weighed less than in control mice (average),BPLER tumors; 1.6 mg/kg i.v. weekly,63%
same,Noxa induction and caspase 3 cleavage in tumors,BPLER tumors; immunohistochemistry and western blot,induced Noxa induction and caspase 3 cleavage in vivo
same,Noxa protein induction,"Noxa, PARP1; BPE, MCF7 and T47D",only weakly
same,Noxa protein level,"Noxa, PARP1; BPLER cells",highly increased
same,PARP cleavage,"Noxa, PARP1; HCC1143 and HCC1937 cells",induced PARP cleavage
same,PARP cleavage,"Noxa, PARP1; MCF7 or MDA-MB-436 cells",not in MCF7 or MDA-MB-436 cells
same,Noxa protein induction,"Noxa, PARP1; all TNBC cell lines tested",strongly induced Noxa protein
